Experimental findings from ChEMBL document CHEMBL1201862, “PubChem BioAssay data set” (2004) are described below.

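These data come from cells grown in 96-well plates and exposed to compound for 48 hours at five concentrations. Here, GI50 denotes the concentration required for 50% inhibition of growth.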 Active and inactive are the calls of the source. Rule as the data show it: active = GI50 up to about 1.1 µM and inactive = higher.

Some test systems named below: ACHN; HL-60; HT-29; K562; KM12; MDA-MB-231; MDA-MB-435; MOLT-4; NCI-H226; NCI-H23; NCI-H460; OVCAR-4; RPMI-8226; RXF 393; SF-539; SK-MEL-2; TK-10; UACC-257; HOP-62; LOX IMVI.
Common to all, as to experiment: DTP human tumour cell line panel, 48 h

`CC(=O)Nc1ccc(COC(O)CN2CCCCC2)cc1[N+](=O)[O-]` (stereo not given): the GI50 with ACHN, with HL-60, in the experiment with HT-29, with K562, with KM12 and in the experiment on MDA-MB-231 was > 100 µM (inactive) each time. The GI50 in the experiment on MDA-MB-435, in the experiment with MOLT-4, in the experiment on NCI-H226, in the experiment with NCI-H23, in the experiment with NCI-H460 and with OVCAR-4 was > 100 µM (inactive) each time. Further, the GI50 with RPMI-8226, in the experiment with RXF 393, in the experiment with SF-539, in the experiment with SK-MEL-2, in the experiment on TK-10 and in the experiment on UACC-257 was > 100 µM (inactive) each time.
Take `COC(=O)c1c(OC(C)=O)ccc2c1c1c(OC(C)=O)c3ccccc3c(OC(C)=O)c1n2Cc1cc(OC)cc(OC)c1`: the GI50 (usually the concentration at which growth is held to half of that of the control) in the experiment on ACHN was 30.8 µM (inactive); in the experiment with HL-60, 7.78 µM (inactive); with HOP-62, 8.83 µM (inactive); in the experiment with HT-29, 47.9 µM (inactive); with K562, 11 µM (inactive); in the experiment on KM12, 2.79 µM (inactive). Further, the GI50 was 16.3 µM (inactive) with MDA-MB-231; 6.64 µM (inactive) with MDA-MB-435; 17.2 µM (inactive) in the experiment with MOLT-4; 31.3 µM (inactive) with NCI-H226; 9.91 µM (inactive) in the experiment on NCI-H23; 3.53 µM (inactive) in the experiment on NCI-H460. The GI50 in the experiment with OVCAR-4 is 4.41 µM (inactive); in the experiment with RPMI-8226 it was 3.94 µM (inactive); with RXF 393, 8.81 µM (inactive); in the experiment on SF-539 it was 3.09 µM (inactive); in the experiment on SK-MEL-2 it was 3.31 µM (inactive); in the experiment on TK-10, 66.7 µM (inactive). For the same molecule, in the experiment with UACC-257, the GI50 is 25.7 µM (inactive).
`O=C(O)COc1cc(-c2ccccc2)nc2cc(F)ccc12`: the GI50 in the experiment with ACHN, with HL-60, with HOP-62, in the experiment with HT-29, with K562 and in the experiment on KM12 was > 100 µM (inactive) throughout. Moreover, the GI50 in the experiment on LOX IMVI, with MDA-MB-231, in the experiment on MDA-MB-435, with MOLT-4, in the experiment on NCI-H226 and in the experiment on NCI-H23 was > 100 µM (inactive) each time. In addition, the GI50 is > 100 µM (inactive) in the experiment on NCI-H460; > 100 µM (inactive) with OVCAR-4; > 100 µM (inactive) in the experiment with RPMI-8226; > 100 µM (inactive) in the experiment with SF-539; > 100 µM (inactive) in the experiment on SK-MEL-2; 0.375 µM (active) in the experiment with TK-10. For the same molecule, in the experiment with UACC-257, the GI50 is > 100 µM (inactive).
For the molecule `Cc1nc2c(=O)n(C)ncc2[nH]1`, the GI50 in the experiment on ACHN is > 100 µM (inactive); in the experiment on HL-60, 33.4 µM (inactive); in the experiment with HOP-62, > 100 µM (inactive); in the experiment on HT-29, > 100 µM (inactive); with K562 it was > 100 µM (inactive); with KM12, > 100 µM (inactive). Besides, the GI50 in the experiment with MDA-MB-231, in the experiment with MDA-MB-435, in the experiment with MOLT-4, in the experiment on NCI-H226, in the experiment on NCI-H23 and in the experiment on NCI-H460 was > 100 µM (inactive) in each case. Besides, the GI50 with RPMI-8226, in the experiment with RXF 393, in the experiment on SF-539, in the experiment on SK-MEL-2, with TK-10 and with UACC-257 was > 100 µM (inactive) throughout.
Consider `O=c1c2cc([N+](=O)[O-])cnc2sn1-c1ccc(Br)cc1`, for which the GI50 is > 100 µM (inactive) in the experiment with ACHN; 34.5 µM (inactive) in the experiment with HL-60; 36.1 µM (inactive) in the experiment on HOP-62; 27.2 µM (inactive) with HT-29; 40.8 µM (inactive) in the experiment with KM12; 19.3 µM (inactive) in the experiment on LOX IMVI. Moreover, the GI50 in the experiment with MDA-MB-231 is 28.3 µM (inactive); with MDA-MB-435 it was > 100 µM (inactive); in the experiment with MOLT-4, 32.8 µM (inactive); in the experiment on NCI-H226, 73.6 µM (inactive); in the experiment on NCI-H23, 29.6 µM (inactive); with NCI-H460, 66.8 µM (inactive). Further, the GI50 with OVCAR-4 was 24.5 µM (inactive); in the experiment with RPMI-8226 it was 26.6 µM (inactive); in the experiment on SF-539, 27.3 µM (inactive); in the experiment with SK-MEL-2 it was 32.7 µM (inactive); in the experiment on TK-10, > 100 µM (inactive); in the experiment on UACC-257, > 100 µM (inactive).
As for `Cc1cccc(-c2nc(-c3cnccn3)n(Cc3ccccc3)n2)c1`, the GI50 in the experiment with HL-60 was > 100 µM (inactive); with HOP-62, 35.1 µM (inactive); in the experiment with HT-29, > 100 µM (inactive); in the experiment on K562, > 100 µM (inactive); with KM12, > 100 µM (inactive); with LOX IMVI, > 100 µM (inactive). Besides, the GI50 was > 100 µM (inactive) in the experiment on MDA-MB-231; > 100 µM (inactive) in the experiment on MDA-MB-435; > 100 µM (inactive) in the experiment with MOLT-4; > 100 µM (inactive) in the experiment on NCI-H23; > 100 µM (inactive) in the experiment with NCI-H460; 27.2 µM (inactive) in the experiment on OVCAR-4. In addition, the GI50 in the experiment on RPMI-8226 is > 100 µM (inactive); with RXF 393, 29.6 µM (inactive); with SF-539, > 100 µM (inactive); in the experiment with UACC-257 it was > 100 µM (inactive).
With `CCCCCCCCCCCCCCCCCc1cccc(OCOCCOC)c1CO`, the GI50 in the experiment with ACHN, with HL-60, with HOP-62, in the experiment on HT-29, in the experiment with K562 and in the experiment with KM12 was > 100 µM (inactive) each time. The GI50 in the experiment on MDA-MB-231, with MDA-MB-435, with MOLT-4, with NCI-H226, in the experiment on NCI-H23 and in the experiment on NCI-H460 was > 100 µM (inactive) each time. Moreover, the GI50 in the experiment with OVCAR-4, with RPMI-8226, in the experiment on RXF 393, in the experiment with SF-539, in the experiment with SK-MEL-2 and with TK-10 was > 100 µM (inactive) each time. Further, the GI50 in the experiment with UACC-257 was > 100 µM (inactive).
`COC(=O)CCc1ccc(CCC(=O)OC)cc1`: the GI50 in the experiment on ACHN, in the experiment on HL-60, in the experiment with HOP-62, in the experiment with HT-29, with K562 and in the experiment on LOX IMVI was > 100 µM (inactive) throughout. The GI50 in the experiment on MDA-MB-231, in the experiment with MDA-MB-435, in the experiment on MOLT-4, with NCI-H23, in the experiment on NCI-H460 and in the experiment on OVCAR-4 was > 100 µM (inactive) each time. The GI50 in the experiment with RPMI-8226, in the experiment on RXF 393, in the experiment on SF-539, with SK-MEL-2, in the experiment with TK-10 and in the experiment on UACC-257 was > 100 µM (inactive) in each case.
